From paper PMC8621172, “Manipulating Estrogenic/Anti-Estrogenic Activity of Triphenylethylenes towards Development of Novel Anti-Neoplastic SERMs” (International Journal of Molecular Sciences, 2021)

Biological target: T1, human ERα (Homo sapiens, UniProt P03372)
T1 construct: host or cells: Saccharomyces cerevisiae
T1 sequence (P03372 1-595): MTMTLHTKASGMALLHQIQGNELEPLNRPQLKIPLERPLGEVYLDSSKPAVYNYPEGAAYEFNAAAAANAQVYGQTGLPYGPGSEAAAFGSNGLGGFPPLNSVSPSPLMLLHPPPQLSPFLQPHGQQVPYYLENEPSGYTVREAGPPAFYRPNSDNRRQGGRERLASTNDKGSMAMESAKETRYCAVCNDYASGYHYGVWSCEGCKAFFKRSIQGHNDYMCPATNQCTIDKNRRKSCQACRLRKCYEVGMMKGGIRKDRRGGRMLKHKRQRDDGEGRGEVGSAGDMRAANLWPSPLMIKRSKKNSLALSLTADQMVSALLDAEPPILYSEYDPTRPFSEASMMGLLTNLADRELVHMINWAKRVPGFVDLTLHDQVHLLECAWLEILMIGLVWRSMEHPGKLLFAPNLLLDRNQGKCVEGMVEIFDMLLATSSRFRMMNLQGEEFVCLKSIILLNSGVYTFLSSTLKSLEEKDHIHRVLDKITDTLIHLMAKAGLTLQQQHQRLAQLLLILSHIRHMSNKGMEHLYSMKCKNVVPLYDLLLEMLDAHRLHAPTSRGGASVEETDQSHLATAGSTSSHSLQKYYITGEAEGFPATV
Assay: Yeast estrogen screen (YES) assay, antagonistic activity (β-galactosidase reporter)
Assay type: cell-based, yeast (Saccharomyces cerevisiae)
Conditions: compounds at 1 µM in presence of 0.5 nM/1 nM E2 (E2 set as 1); triplicates
Protocol: All synthesized compounds were tested for their relative activity in β-galactosidase in a yeast estrogen screen (YES) assay. Compounds were tested for their relative estrogenic/anti-estrogenic activities in comparison to positive and negative controls, respectively. YES assay is a gene reporter assay where the DNA sequence of human ERα is integrated into the yeast genome completed with an expression plasmid carrying estrogen response elements (ERE) in the promoter controlling the expression of the reporter gene lacZ (encoding the enzyme β-galactosidase). In the presence of estrogenic compounds, β-galactosidase is synthesized and secreted into the medium, where it converts the chromogenic substrate chlorophenol red-β-D-galactopyranoside (CRPG) from a yellow to a red product, whose absorbance is measured. […] Therefore, we decided to test the novel compounds in an organ-specific in vitro model using the human Ishikawa endometrial adenocarcinoma cell line.
The yeast estrogen receptor assay was supplied by Dr. J.P. Sumpter (Brunel University, Uxbridge, UK) and was used to determine the relative transactivation activity of the human ERα as formerly described. Briefly, Saccharomyces cerevisiae stably transfected with a human ERα and an estrogen-responsive element fused to the reporter gene lacZ encoding for β-galactosidase were treated with the test substances for about 48 h. The β-galactosidase enzymatic activity was measured in a colorimetric assay using a microplate photometer by hydrolysis of the substrate chlorophenol red β-D-galactopyranoside (Roche Diagnostics, Mannheim, Germany), which leads to the formation of chlorophenol red. This can be measured as an increased absorption at 540 nm. All compounds were diluted in DMSO. […] All compounds were tested in technical quadruplicates and biological triplicates. Statistical analysis was performed by analysis of variance (ANOVA) and Tukey’s post-hoc test with the significance level of p < 0.05.

Row | Anti-Estrogenic Activity (relative β-galactosidase activity) | SMILES
1 | 2.55 ± 0.41 | COc1ccc(C(C)=C(c2ccc(Cl)cc2)c2ccc(OCCN3CCCCC3)cc2)cc1 [Compound 12, E/Z-1-(2-{4-[1-(4-Chloro-phenyl)-2-(4-methoxy-phenyl)-propenyl]-phenoxy}-ethyl)-piperidine]
2 | 0.86 ± 0.04 | COc1cc(C(C)=C(c2ccc(Cl)cc2)c2ccc(OCCN(C)C)cc2)ccc1F [Compound 27, E/Z-(2-{4-[1-(4-Chlorophenyl)-2-(4-fluoro-3-methoxyphenyl)-propenyl]-phenoxy}-ethyl)-dimethyl-amine]
3 | 1.99 ± 0.02 | CC(=C(c1ccc(Cl)cc1)c1ccc(OCCN2CCCCCC2)cc1)c1ccccc1 [Compound 9, E/Z-1-(2-{4-[1-(4-Chloro-phenyl)-2-phenyl-propenyl]-phenoxy}-ethyl)-azepane]
4 | 1.05 ± 0.12 | COc1cc(C(C)=C(c2ccc(Cl)cc2)c2ccc(OCCN3CCCCCC3)cc2)ccc1F [Compound 26, E/Z-1-(2-{4-[1-(4-Chlorophenyl)-2-(4-fluoro-3-methoxyphenyl)-propenyl]-phenoxy}-ethyl)-azepane]
5 | 1.34 ± 0.15 | CC(=C(c1ccc(Cl)cc1)c1ccc(OCCCN(C)C)cc1)c1ccccc1 [Compound 5, E/Z-(3-{4-[1-(4-Chloro-phenyl)-2-phenyl-propenyl]-phenoxy}-propyl)-dimethyl-amine]
6 | 1.35 ± 0.16 | CC(=C(c1ccc(Cl)cc1)c1ccc(OCCN2CCCCC2)cc1)c1ccccc1 [Compound 7, E/Z-1-(2-{4-[1-(4-Chloro-phenyl)-2-phenyl-propenyl]-phenoxy}-ethyl)-piperidine]
7 | 1.18 ± 0.03 | COc1cc(C(C)=C(c2ccc(Cl)cc2)c2ccc(OCCN3CCOCC3)cc2)ccc1F [Compound 25, E/Z-4-(2-{4-[1-(4-Chlorophenyl)-2-(4-fluoro-3-methoxyphenyl)-propenyl]-phenoxy}-ethyl)-morpholine]
8 | 1.55 ± 0.12 | COc1ccc(C(C)=C(c2ccc(Cl)cc2)c2ccc(OCCN3CCCC3)cc2)cc1 [Compound 11, E/Z-1-(2-{4-[1-(4-Chloro-phenyl)-2-(4-methoxy-phenyl)-propenyl]-phenoxy}-ethyl)-pyrrolidine]
9 | 0.97 ± 0.03 | COc1cc(C(C)=C(c2ccc(Cl)cc2)c2ccc(OCCCN(C)C)cc2)ccc1F [Compound 22, E/Z-(3-{4-[1-(4-Chlorophenyl)-2-(4-fluoro-3-methoxyphenyl)-propenyl]-phenoxy}-propyl)-dimethyl-amine]
10 | 1.20 ± 0.19 | CC(=C(c1ccc(Cl)cc1)c1ccc(OCCN2CCCC2)cc1)c1ccccc1 [Compound 6, E/Z-1-(2-{4-[1-(4-Chloro-phenyl)-2-phenyl-propenyl]-phenoxy}-ethyl)-pyrrolidine]
11 | 1.11 ± 0.26 | CC(=C(c1ccc(Cl)cc1)c1ccc(OCCN2CCOCC2)cc1)c1ccccc1 [Compound 8, E/Z-4-(2-{4-[1-(4-Chloro-phenyl)-2-phenyl-propenyl]-phenoxy}-ethyl)-morpholine]
12 | 1.19 ± 0.10 | COc1cc(C(C)=C(c2ccc(Cl)cc2)c2ccc(OCCN3CCCCC3)cc2)ccc1F [Compound 24, E/Z-1-(2-{4-[1-(4-Chlorophenyl)-2-(4-fluoro-3-methoxyphenyl)-propenyl]-phenoxy}-ethyl)-piperidine]
13 | 0.86 ± 0.07 | CCN(CC)CCOc1ccc(C(=C(C)c2ccc(F)c(OC)c2)c2ccc(Cl)cc2)cc1 [Compound 28, E/Z-(2-{4-[1-(4-Chlorophenyl)-2-(4-fluoro-3-methoxyphenyl)-propenyl]-phenoxy}-ethyl)-diethyl-amine]
14 | 1.53 ± 0.09 | COc1ccc(C(C)=C(c2ccc(Cl)cc2)c2ccc(OCCN3CCCCCC3)cc2)cc1 [Compound 14, E/Z-1-(2-{4-[1-(4-Chloro-phenyl)-2-(4-methoxy-phenyl)-propenyl]-phenoxy}-ethyl)-azepane]
15 | 3.92 ± 0.58 | COc1ccc(C(C)=C(c2ccc(Cl)cc2)c2ccc(OCCCN(C)C)cc2)cc1 [Compound 10, E/Z-(3-{4-[1-(4-Chloro-phenyl)-2-(4-methoxy-phenyl)-propenyl]-phenoxy}-propyl)-dimethyl-amine]
16 | 1.06 ± 0.05 | COc1cc(C(C)=C(c2ccc(Cl)cc2)c2ccc(OCCN3CCCC3)cc2)ccc1F [Compound 23, E/Z-1-(2-{4-[1-(4-Chlorophenyl)-2-(4-fluoro-3-methoxyphenyl)-propenyl]-phenoxy}-ethyl)-pyrrolidine]

Tested on: Hs578T
Assay: NCI five-dose assay, TNBC cell line Hs578T
Assay type: cell-based, human
Conditions: not given
Protocol: All compounds were subjected to the NCI in vitro disease-oriented human cells screening panel assay. The human tumor cell lines of the cancer-screening panel are grown in RPMI 1640 medium containing 5% fetal bovine serum and 2 mM L-glutamine. For a typical screening experiment, cells are inoculated into 96-well microtiter plates in 100 μL at plating densities ranging from 5000 to 40,000 cells/well depending on the doubling time of individual cell lines. After cell inoculation, the microtiter plates are incubated at 37 °C, 5% CO2, 95% air, and 100% relative humidity for 24 h prior to the addition of experimental drugs. After 24 h, two plates of each cell line are fixed in situ with TCA to represent a measurement of the cell population for each cell line at the time of drug addition. Experimental drugs are solubilized in dimethyl sulfoxide at 400-fold the desired final maximum test concentration and stored frozen prior to use. At the time of drug addition, an aliquot of frozen concentrate is thawed and diluted to twice the desired final maximum test concentration with complete medium containing 50 μg/mL gentamicin. Additional four, 10-fold, or ½ log serial dilutions are made to provide a total of five drug concentrations plus control. Aliquots of 100 μL of these different drug dilutions are added to the appropriate microtiter wells already containing 100 μL of medium, resulting in the required final drug concentrations. Following drug addition, the plates are incubated for an additional 48 h at 37 °C, 5% CO2, 95% air, and 100% relative humidity. For adherent cells, the assay is terminated by the addition of cold TCA. Cells are fixed in situ by the gentle addition of 50 μL of cold 50% (w/v) TCA (final concentration, 10% TCA) and incubated for 60 min at 4 °C. […] Bound stain is subsequently solubilized with a 10 mM trizma base, and the absorbance is read on an automated plate reader at a wavelength of 515 nm. […] Three response parameters (GI50, TGI, and LC50) were calculated for each cell line.

Row | SMILES | anti-proliferative activity compared to TAM
17 | COc1ccc(C(C)=C(c2ccc(Cl)cc2)c2ccc(OCCN3CCCCC3)cc2)cc1F [Compound 17, E/Z-1-(2-{4-[1-(4-Chlorophenyl)-2-(3-fluoro-4-methoxyphenyl)-propenyl]-phenoxy}-ethyl)-piperidine] | more potent than TAM
18 | CCN(CC)CCOc1ccc(C(=C(C)c2ccc(F)c(OC)c2)c2ccc(Cl)cc2)cc1 [Compound 28, E/Z-(2-{4-[1-(4-Chlorophenyl)-2-(4-fluoro-3-methoxyphenyl)-propenyl]-phenoxy}-ethyl)-diethyl-amine] | more potent than TAM
19 | COc1ccc(C(C)=C(c2ccc(Cl)cc2)c2ccc(OCCN3CCCCCC3)cc2)cc1F [Compound 19, E/Z-1-(2-{4-[1-(4-Chlorophenyl)-2-(3-fluoro-4-methoxyphenyl)-propenyl]-phenoxy}-ethyl)-azepane] | more potent than TAM
